In PMC4887496, “The Mouthparts Enriched Odorant Binding Protein 11 of the Alfalfa Plant Bug Adelphocoris lineolatus Displays a Preferential Binding Behavior to Host Plant Secondary Metabolites” (Frontiers in Physiology, 2016):

biological target: T1, recombinant AlinOBP11 (Adelphocoris lineolatus, UniProt F4Y5P9); assay: Binding of fluorescent probe 1-NPN to recombinant AlinOBP11 (fluorescence titration, Scatchard plot); details: 2 μM protein in 50 mM Tris-HCl pH 7.4, 1-NPN 1 to 16 μM; read-out: dissociation constant of the AlinOBP11/1-NPN complex
T1 sequence (F4Y5P9 entry or part of it): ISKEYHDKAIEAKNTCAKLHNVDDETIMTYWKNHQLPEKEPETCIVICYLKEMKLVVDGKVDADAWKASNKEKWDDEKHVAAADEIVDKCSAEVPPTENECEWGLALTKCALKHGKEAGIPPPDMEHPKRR

For c1ccc(Nc2cccc3ccccc23)cc1 [1-NPN, N-phenyl-1-naphthylamine], which Kd is on record?
The Kd was 5.86 ± 0.47 µM.

biological target: T1, recombinant AlinOBP11; assay: biochemical; type: binding; details: not given

With CCCCCCO [1-Hexanol] as the molecule, how does the IC50 read?
The IC50 was over 30 µM.

For CCCCC(C)=O [2-Hexanone], which IC50 is on record?
Its IC50 is over 30 µM.

Which IC50 does the source give for CC(=O)CCC=C(C)C [6-Methyl-5-hepten-2-one] here?
Its IC50 is over 30 µM.

Which IC50 does the source give for CC(=O)c1ccccc1 [Acetophenone] here?
The IC50 was over 30 µM.

For O=Cc1ccccc1 [Benzaldehyde], which IC50 is on record?
Its IC50 is over 30 µM.

Which IC50 does the source give for CCCC(=O)OCC [Ethyl butyrate] here?
Its IC50 is over 30 µM.

What does the source list for Cc1cc2c(C(C)C)c(O)c(O)c(C=O)c2c(O)c1-c1c(C)cc2c(C(C)C)c(O)c(O)c(C=O)c2c1O [Gossypol]?
IC50: 4.45 ± 0.34 µM; Ki: 3.43 ± 0.32 µM

Which IC50 does the source give for CCCCCCC=O [Heptanal] here?
Its IC50 is over 30 µM.

With CCCCCC=O [Hexanal] as the molecule, how does the IC50 read?
Its IC50 is over 30 µM.

For c1ccc2[nH]ccc2c1 [Indole], which IC50 is on record?
Its IC50 is over 30 µM.

Which IC50 does the source give for COC(=O)c1ccccc1O [Methyl salicylate] here?
Its IC50 is over 30 µM.

For CC/C=C\CCO [cis-3-Hexen-1-ol], which IC50 is on record?
Its IC50 is over 30 µM.

For CCC/C=C/C=O [trans-2-Hexenal], which IC50 is on record?
Its IC50 is over 30 µM.

With CC1=CC[C@H](C(C)C)C=C1 [α-Phellandrene] as the molecule, how does the IC50 read?
The IC50 was 26.2 ± 0.52 µM.

What about the Ki of the same molecule?
Its Ki is 20.1 ± 0.41 µM.

Which IC50 does the source give for C=C1CC/C=C(\C)CC[C@@H]2[C@@H]1CC2(C)C [β-Caryophyllene] here?
Its IC50 is over 30 µM.

With CC(=O)/C=C/C1=C(C)CCCC1(C)C [β-Ionone] as the molecule, how does the IC50 read?
Its IC50 is over 30 µM.

With C=C1CCC2CC1C2(C)C (stereo not drawn) [β-Pinene] as the molecule, how does the IC50 read?
Its IC50 is over 30 µM.

same assay, conditions: 2 μM protein, 2 μM 1-NPN, 50 mM Tris-HCl pH 7.4, competitor 2 to 30 μM, 25°C; read-out: IC50 (μM) AlinOBP11

For C=CC(C)(O)CCC=C(C)CCC=C(C)C (mixture of isomers) [Nerolidol], which IC50 is on record?
Its IC50 is 27.2 ± 0.71 µM.

With CCCCCC(C)=O [2-Heptanone] as the molecule, how does the IC50 read?
The IC50 was over 30 µM.

With CCCCC(C)O (stereo not shown) [2-Hexanol] as the molecule, how does the IC50 read?
Its IC50 is over 30 µM.

With CCCCCCC(C)=O [2-Octanone] as the molecule, how does the IC50 read?
Its IC50 is over 30 µM.

Which IC50 does the source give for Cc1ccc(C=O)cc1C [3,4-Dimethyl-benzaldehyde] here?
The IC50 was over 30 µM.

With CCCC(=O)CC [3-Hexanone] as the molecule, how does the IC50 read?
Its IC50 is over 30 µM.

Which IC50 does the source give for Oc1cc(O)c2c(c1)O[C@@H](c1ccc(O)c(O)c1)[C@H](O)C2 [(−)-Catechin] here?
Its IC50 is 19.3 ± 0.93 µM.

For CCCCCOC(C)=O [Amyl acetate], which IC50 is on record?
Its IC50 is over 30 µM.

Which IC50 does the source give for CCCCOC(=O)CCC [Butyl butyrate] here?
Its IC50 is over 30 µM.

For C=C/C(C)=C/CC=C(C)C [E-β-Ocimene], which IC50 is on record?
Its IC50 is over 30 µM.

Which IC50 does the source give for CCCCCCOC(=O)CCC [Hexyl butyrate] here?
The IC50 was over 30 µM.

For CCCCCCOC(=O)CCCCC [Hexyl hexanoate], which IC50 is on record?
The IC50 was over 30 µM.

For C=C(C)[C@H]1CC=C(C)CC1 [Limonene], which IC50 is on record?
The IC50 was over 30 µM.

Which IC50 does the source give for C=CC(=C)CCC=C(C)C [Myrcene] here?
Its IC50 is over 30 µM.

For CCCCCCCCC=O [Nonanal], which IC50 is on record?
The IC50 was over 30 µM.

Which IC50 does the source give for CCCCCCCCCOC(C)=O [Nonyl acetate] here?
Its IC50 is over 30 µM.

With CCCCCCCC=O [Octanal] as the molecule, how does the IC50 read?
Its IC50 is over 30 µM.

Which IC50 does the source give for CCCCCO [Pentanol] here?
Its IC50 is over 30 µM.

With C[C@@H]1O[C@@H](OC[C@H]2O[C@@H](Oc3c(-c4ccc(O)c(O)c4)oc4cc(O)cc(O)c4c3=O)[C@H](O)[C@@H](O)[C@@H]2O)[C@H](O)[C@H](O)[C@H]1O.O [Rutin hydrate] as the molecule, how does the IC50 read?
Its IC50 is 9.89 ± 1.61 µM.

Which IC50 does the source give for CCCCCCCCCCC [Undecane] here?
Its IC50 is over 30 µM.

With CCCCC=O [Valeraldehyde] as the molecule, how does the IC50 read?
The IC50 was over 30 µM.

With CC/C=C\CCOC(C)=O [cis-3-hexenyl acetate] as the molecule, how does the IC50 read?
Its IC50 is over 30 µM.

With CC(C)=CCC/C(C)=C/CC/C(C)=C/CO [trans,trans-Farnesol] as the molecule, how does the IC50 read?
The IC50 was 25.2 ± 2.36 µM.

Which IC50 does the source give for CCC/C=C/COC(=O)CCC [trans-2-hexenyl butyrate] here?
Its IC50 is over 30 µM.

With C=CC(=C)CC/C=C(\C)CCC=C(C)C [trans-β-Farnesene] as the molecule, how does the IC50 read?
The IC50 was over 30 µM.

For C/C1=C\CC/C(C)=C/CC(C)(C)/C=C/C1 [α-Humulene], which IC50 is on record?
The IC50 was over 30 µM.

Which IC50 does the source give for (+)-α-Pinene here?
The IC50 was over 30 µM.

same assay, conditions: […]; 2 μM protein, 2 μM 1-NPN, pH 7.4; read-out: Ki (μM) AlinOBP11

With Oc1cc(O)c2c(c1)O[C@@H](c1ccc(O)c(O)c1)[C@H](O)C2 [(−)-Catechin] as the molecule, how does the Ki read?
The Ki was 15.3 ± 0.7 µM.

same assay, conditions: calculated from IC50: Ki = [IC50]/(1+[1-NPN]/K1-NPN); 2 μM protein, 2 μM 1-NPN, pH 7.4; read-out: Ki (μM) AlinOBP11

Which Ki does the source give for C=CC(C)(O)CCC=C(C)CCC=C(C)C (mixture of isomers) [Nerolidol] here?
Its Ki is 20.8 ± 0.55 µM.

For C[C@@H]1O[C@@H](OC[C@H]2O[C@@H](Oc3c(-c4ccc(O)c(O)c4)oc4cc(O)cc(O)c4c3=O)[C@H](O)[C@@H](O)[C@@H]2O)[C@H](O)[C@H](O)[C@H]1O.O [Rutin hydrate], which Ki is on record?
Its Ki is 7.78 ± 1.23 µM.

For CC(C)=CCC/C(C)=C/CC/C(C)=C/CO [trans,trans-Farnesol], which Ki is on record?
Its Ki is 19.3 ± 1.78 µM.

tested on: AlucOBP36; assay: not given; parameters: method as in Hua et al., 2012; details: antennae expressed AlucOBP36; ref Hua et al., 2012; cited from earlier work

With C[C@@H]1O[C@@H](OC[C@H]2O[C@@H](Oc3c(-c4ccc(O)c(O)c4)oc4cc(O)cc(O)c4c3=O)[C@H](O)[C@@H](O)[C@@H]2O)[C@H](O)[C@H](O)[C@H]1O.O [Rutin hydrate] as the molecule, how does the “binding abilities to AlucOBP36 (in words)” value read?
Its value is “better binding abilities”.
